According to the supplement of paper PMC10307832:

What was measured:
Experiment in all cases: relative viability (nuclei count vs DMSO), 5 days (fraction); higher = more cells survive
[1] = test system: NCI-H1355
Procedure, shortened: (§1)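 Relative viability is defined as nuclei in treated wells over nuclei in vehicle wells. Duplicate plates were run and medians reported. Lung cancer cell lines in 1536-well plates were dosed by pin tool one day after seeding, with one drug or with a fixed anchor-drug dose plus five library-drug doses (not always all listed) in √10 steps, and nuclei were counted after 5 days.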

[2] = test system: NCI-H322M
Procedure, shortened: as §1

[3] = test system: NCI-H1993
Procedure, shortened: as §1

[4] = test system: NCI-H2342
Procedure, shortened: as §1

[5] = test system: SK-MES-1
Procedure, shortened: as §1

[6] = test system: HOP-62
Procedure, shortened: as §1

[7] = test system: COR-L 105
Procedure, shortened: as §1

[8] = test system: NCI-H2228
Procedure, shortened: as §1

[9] = test system: NCI-H1395
Procedure, shortened: as §1

[10] = test system: NCI-H838
Procedure, shortened: as §1

[11] = test system: NCI-H1734
Procedure, shortened: as §1

[12] = test system: NCI-H2170
Procedure, shortened: as §1

Compound: COc1cc(N2CCC(C(N)=O)CC2)ccc1Nc1nc(N)c(Cl)c(Nc2ccccc2S(=O)(=O)C(C)C)n1 [HG-5-88-01] + N=C(N)NC(=N)NCCc1ccccc1 [Phenformin] (partner 250 µM)
- relative viability ([1]; first compound 0.04 µM): 0.487
- relative viability ([1]; first compound 0.1265 µM): 0.493
- relative viability ([1]; first compound 0.4 µM): 0.431
- relative viability ([1]; first compound 1.265 µM): 0.455
- relative viability ([1]; first compound 4 µM): 0.316
- relative viability ([2]; first compound 0.04 µM): 0.793
- relative viability ([2]; first compound 0.1265 µM): 0.669
- relative viability ([2]; first compound 0.4 µM): 0.689
- relative viability ([2]; first compound 4 µM): 0.704
- relative viability ([3]; first compound 0.04 µM): 0.501
- relative viability ([3]; first compound 0.1265 µM): 0.471
- relative viability ([3]; first compound 0.4 µM): 0.438
- relative viability ([3]; first compound 1.265 µM): 0.558
- relative viability ([3]; first compound 4 µM): 0.527
- relative viability ([4]; first compound 0.04 µM): 0.464
- relative viability ([4]; first compound 0.1265 µM): 0.538
- relative viability ([4]; first compound 0.4 µM): 0.614
- relative viability ([4]; first compound 1.265 µM): 0.506
- relative viability ([4]; first compound 4 µM): 0.6
- relative viability ([5]; first compound 0.04 µM): 0.665
- relative viability ([5]; first compound 0.1265 µM): 0.646
- relative viability ([5]; first compound 0.4 µM): 0.652
- relative viability ([5]; first compound 1.265 µM): 0.602
- relative viability ([5]; first compound 4 µM): 0.643
- relative viability ([6]; first compound 0.04 µM): 0.662
- relative viability ([6]; first compound 0.1265 µM): 0.65
- relative viability ([6]; first compound 0.4 µM): 0.654
- relative viability ([6]; first compound 1.265 µM): 0.725
- relative viability ([6]; first compound 4 µM): 0.718
- relative viability ([7]; first compound 0.04 µM): 0.61
- relative viability ([7]; first compound 0.1265 µM): 0.511
- relative viability ([7]; first compound 0.4 µM): 0.47
- relative viability ([7]; first compound 1.265 µM): 0.324
- relative viability ([7]; first compound 4 µM): 0.296
- relative viability ([8]; first compound 0.04 µM): 0.146
- relative viability ([8]; first compound 0.1265 µM): 0.124
- relative viability ([8]; first compound 0.4 µM): 0.174
- relative viability ([8]; first compound 1.265 µM): 0.0974
- relative viability ([8]; first compound 4 µM): 0.0828
- relative viability ([9]; first compound 0.04 µM): 0.423
- relative viability ([9]; first compound 0.1265 µM): 0.422
- relative viability ([9]; first compound 0.4 µM): 0.45
- relative viability ([9]; first compound 1.265 µM): 0.449
- relative viability ([9]; first compound 4 µM): 0.463
- relative viability ([10]; first compound 0.04 µM): 0.505
- relative viability ([10]; first compound 0.1265 µM): 0.558
- relative viability ([10]; first compound 0.4 µM): 0.411
- relative viability ([10]; first compound 1.265 µM): 0.368
- relative viability ([10]; first compound 4 µM): 0.313
- relative viability ([11]; first compound 0.04 µM): 0.345
- relative viability ([11]; first compound 0.1265 µM): 0.364
- relative viability ([11]; first compound 0.4 µM): 0.333
- relative viability ([11]; first compound 1.265 µM): 0.371
- relative viability ([11]; first compound 4 µM): 0.355
- relative viability ([12]; first compound 0.04 µM): 0.466
- relative viability ([12]; first compound 0.1265 µM): 0.442
- relative viability ([12]; first compound 0.4 µM): 0.461
